Source: patent publication US20140010801A1, “Compositions and Methods for Restoring or Rejuvenating Stem/Progenitor Cell Function” (UNIVERSITY OF PITTSBURGH - OF THE COMMONWEALTH SYSTEM OF …, priority 2012, published 2014)

Columns and labels:
aged WT MDSPCs = assay: Myogenic potential (fusion index) of aged MDSPCs under IKK-β inhibition; type: cell-based, mouse; set-up: dose or concentration left out as unconfirmed; settings: fusion conditions
Excerpt: Reduction of NF-κB enhances the myogenic differentiation potential and resistance to stress in MDSPCs isolated from naturally aged mice. To determine further whether the NF-κB signaling pathway plays a role in driving age-related stem cell dysfunction, whether pharmacologic inhibition of IKK-β would restore the myogenic potential of aged WT MDSPCs was examined. […] MDSPCs were isolated from 30 month old p65^+/− and 24 month old WT mice and compared the myogenic potential of 30 month old p65^+/− MDSPCs in vitro to naturally aged WT MDSPCs. The results confirmed that MDSPCs from p65^+/− aged mice (30 month) were more myogenic than MDSPCs from 24 month old WT mice.

Ercc1^−/− MEFs = assay: Reversal of senescence (SA-β-gal+) of Ercc1−/− MEFs; type: cell-based, mouse; settings: within 24 hours of treatment
Protocol: FIG. 19 depicts analysis of the ability of an IKK inhibitor (IKKiVII) to rescue senescence (SA-β-gal+) […] MEFs after 24 hours of treatment.
To determine whether NF-κB is activated by endogenous genotoxic stress, which arises as a consequence of normal metabolism, Ercc1^−/− primary cells and mice were used, which are defective in DNA repair were used. Phosphorylated p65 (p-p65) and IκB were measured in nuclear and cytoplasmic extracts from early passage, congenic Ercc1^−/− and WT primary MEFs by immunoblot, and there was a >2-fold increase in nuclear p-p65 in Ercc1^−/− MEFs compared to WT, which correlated with an increase in the level of phosphorylated IκB (p-IκB) in the cytoplasm. EMSA was used to confirm increased NF-κB binding in nuclear extracts of Ercc1^−/− MEFs, which was abrogated by pretreatment of the samples with an anti-p65 antibody. To determine whether premature senescence of Ercc1^−/− MEFs is NF-κB dependent, the growth of Ercc1^−/−; p65^−/− MEFs was compared to congenic Ercc1−/− MEFs. Ercc1^−/− MEFs have reduced proliferation and increased replicative senescence as measured by SA-β-Gal staining, γ-H2AX foci and p16 expression. […] Furthermore, the Ercc1^−/−; p65^−/− MEFs had reduced ROS compared to Ercc1 cells as determined by staining mitochondria with DiOC6 and superoxide anion with MitoSOX. […]

Ercc1^−/Δ mice = assay: Chronic XJB-5-131 treatment of Ercc1−/Δ mice; type: in vivo, mouse

SMILES: NC(=O)Nc1sc(-c2ccc(F)cc2)cc1C(N)=O [IKKβ inhibitor IV]
- fusion index of aged MDSPCs (aged WT MDSPCs): significantly increased

SMILES: O=C(c1ccc(Nc2nccc(-c3cc4ccccc4s3)n2)cc1)N1CCC(N2CCCC2)CC1 [IKKiVII]
- senescence of Ercc1^−/− MEFs (>60% of cells SA-βgal+) (Ercc1^−/− MEFs): could be reversed

SMILES: CC(C)C[C@@H](/C=C/[C@H](Cc1ccccc1)C(=O)N1CCC[C@H]1C(=O)N[C@H](C(=O)N[C@@H](CCCNC(=O)OCc1ccccc1)C(=O)NC1CC(C)(C)N([O])C(C)(C)C1)C(C)C)NC(=O)OC(C)(C)C [XJB-5-131]
- onset of aging-related degenerative changes (Ercc1^−/Δ mice): delay the onset
